Source: patent US20110053773A1, “METHODS OF IMPROVING NUTRITIONAL VALUE OF PLANTS” (UNIVERSITY OF TENNESSEE RESEARCH FOUNDATION, priority 2009, published 2011)

Columns and labels:
kale 'Red Russian' [1] = test: Visual injury of kale after insecticide, fungicide, PGRs, safeners (Example 4)
Description: (§1) Greenhouse and laboratory studies were conducted to ascertain the tolerance and nutritional quality differences following postemergence applications of the insecticide chlorpyrifos, the fungicide chlorothalonil, the PGRs mepiquat-chloride and paclobutrazol, and the safeners napthalic anhydride and isoxadifen-ethyl on kale ‘Red Russian’ and basil ‘Genovese’. Visual injury was rated based on general phytotoxicity, chlorosis, and visual stunting and each measurement was based on a percent scale from 0 to 100 where 0 equals no visual response and 100 equals complete plant death. Kale and basil were both harvested approximately 4 weeks after treatments and plants were pooled over replicates for content analysis of crude protein, crude amino acid content, acid detergent fiber, neutral detergent fiber, total fatty acids, and/or key mineral content (including Na, Ca, P, Mg, K, Fe, Mn, Zn, and Cu). In addition, the amounts of key individual amino acids (aspartic acid, threonine, glutamic acid, proline, glycine, cysteine, valine, leucine, isoleucine, methionine, and lysine) and composite classifications of fatty acid (saturated fatty acids, monounsaturated fatty acids, polyunsaturated fatty acids) were also analyzed from these sub-samples for kale (Tables 10-14).

basil 'Genovese' [2] = test: Visual injury of basil after insecticide, fungicide, PGRs, safeners (Example 4)
Description: as §1

kale 'Red Russian' [3] = test: Content analysis of kale: protein, amino acids, fiber, fatty acids, minerals (Example 4, Tables 12-14); format: in vivo; details: 28 DA-A; for Alanine, Percent Increase over the Untreated Check (on a % dry matter basis) / Aspartic acid, Percent Increase over the Untreated Check (on a % dry matter basis) / Cysteine, Percent Increase over the Untreated Check (on a % dry matter basis) / Glutamic acid, Percent Increase over the Untreated Check (on a % dry matter basis) / Glycine, Percent Increase over the Untreated Check (on a % dry matter basis) / Iso-leucine, Percent Increase over the Untreated Check (on a % dry matter basis) / Leucine, Percent Increase over the Untreated Check (on a % dry matter basis) / Lysine, Percent Increase over the Untreated Check (on a % dry matter basis) / Methionine, Percent Increase over the Untreated Check (on a % dry matter basis) / Proline, Percent Increase over the Untreated Check (on a % dry matter basis) / Threonine, Percent Increase over the Untreated Check (on a % dry matter basis) / Total Amino acids, Percent Increase over the Untreated Check (on a % dry matter basis) / Total Protein, Percent Increase over the Untreated Check (on a % dry matter basis) / Valine, Percent Increase over the Untreated Check (on a % dry matter basis): chlorothalonil ###
Description: as §1

basil 'Genovese' [4] = test: Content analysis of basil: protein, minerals (Example 4, Tables 10-11); format: in vivo; details: 28 DA-A, rates g ai/ha: chlropyrifos 1120, chlorothalonil 2630, paclobutrazol 3.23, mepiquat-chloride 12.3, Isoxadifen 8, Napthalic anhydride 264, + NIS 0.25 % v/v
Description: as §1

kale ‘Red Russian’ = test: Yield, fresh weight of kale after insecticide, fungicide and PGRs (Example 4, Table 12); format: in vivo; details: 28 DA-A, Untreated Check 106.9
Description: as §1

basil ‘Genovese’ = test: Yield, fresh weight of basil after insecticide, fungicide, PGRs and safeners (Example 4, Table 10); format: in vivo; details: DA-A, check 31.8
Description: as §1

[5] = 7 DA-A, rates g ai/ha: chlropyrifos 1120, chlorothalonil 2630, paclobutrazol 3.23, mepiquat-chloride 12.3, + NIS 0.25 % v/v
[6] = 7 DA-A, rates g ai/ha: chlropyrifos 3370, chlorothalonil 7900, paclobutrazol 9.7, mepiquat-chloride 37, + NIS 0.25 % v/v
[7] = 14 DA-A, rates g ai/ha: chlropyrifos 1120, chlorothalonil 2630, paclobutrazol 3.23, mepiquat-chloride 12.3, + NIS 0.25 % v/v
[8] = 14 DA-A, rates g ai/ha: chlropyrifos 3370, chlorothalonil 7900, paclobutrazol 9.7, mepiquat-chloride 37, + NIS 0.25 % v/v
[9] = 28 DA-A, rates g ai/ha: chlropyrifos 1120, chlorothalonil 2630, paclobutrazol 3.23, mepiquat-chloride 12.3, + NIS 0.25 % v/v
[10] = 28 DA-A, rates g ai/ha: chlropyrifos 3370, chlorothalonil 7900, paclobutrazol 9.7, mepiquat-chloride 37, + NIS 0.25 % v/v
[11] = 7 DA-A, rates g ai/ha: chlropyrifos 1120, chlorothalonil 2630, paclobutrazol 3.23, mepiquat-chloride 12.3, Isoxadifen 8, Napthalic anhydride 264, + NIS 0.25 % v/v
[12] = 7 DA-A, rates g ai/ha: chlropyrifos 3370, chlorothalonil 7900, paclobutrazol 9.7, mepiquat-chloride 37, Isoxadifen 16, Napthalic anhydride 527, + NIS 0.25 % v/v
[13] = 14 DA-A, rates g ai/ha: chlropyrifos 1120, chlorothalonil 2630, paclobutrazol 3.23, mepiquat-chloride 12.3, Isoxadifen 8, Napthalic anhydride 264, + NIS 0.25 % v/v
[14] = 14 DA-A, rates g ai/ha: chlropyrifos 3370, chlorothalonil 7900, paclobutrazol 9.7, mepiquat-chloride 37, Isoxadifen 16, Napthalic anhydride 527, + NIS 0.25 % v/v
[15] = 28 DA-A, rates g ai/ha: chlropyrifos 1120, chlorothalonil 2630, paclobutrazol 3.23, mepiquat-chloride 12.3, Isoxadifen 8, Napthalic anhydride 264, + NIS 0.25 % v/v
[16] = 28 DA-A, rates g ai/ha: chlropyrifos 3370, chlorothalonil 7900, paclobutrazol 9.7, mepiquat-chloride 37, Isoxadifen 16, Napthalic anhydride 527, + NIS 0.25 % v/v
[17] = first-listed rate g ai/ha: chlropyrifos ###, paclobutrazol 3.2, mepiquat-chloride 12, + NIS 0.3 % v/v
[18] = rates g ai/ha: chlropyrifos 1120, chlorothalonil 2630, paclobutrazol 3.23, mepiquat-chloride 12.3, + NIS 0.25 % v/v
[19] = rates g ai/ha: chlropyrifos 3370, chlorothalonil 7900, paclobutrazol 9.7, mepiquat-chloride 37, + NIS 0.25 % v/v
[20] = second-listed rate g ai/ha: chlropyrifos ###, paclobutrazol 9.7, mepiquat-chloride 37, + NIS 0.3 % v/v

## CCOP(=S)(OCC)Oc1nc(Cl)c(Cl)cc1Cl [chlropyrifos]
Kale 'Red Russian' [1]; [5]
  Phytotoxicity Chlorosis: 1%
  Phytotoxicity General: 14%
  Phytotoxicity Stunting: 9%
Kale 'Red Russian' [1]; [6]
  Phytotoxicity Chlorosis: 0%
  Phytotoxicity General: 13%
  Phytotoxicity Stunting: 6%
Kale 'Red Russian' [1]; [7]
  Phytotoxicity Chlorosis: 15%
  Phytotoxicity General: 4%
  Phytotoxicity Stunting: 9%
Kale 'Red Russian' [1]; [8]
  Phytotoxicity Chlorosis: 13%
  Phytotoxicity General: 5%
  Phytotoxicity Stunting: 10%
Kale 'Red Russian' [1]; [9]
  Phytotoxicity Chlorosis: 6%
  Phytotoxicity General: 4%
  Phytotoxicity Stunting: 8%
Kale 'Red Russian' [1]; [10]
  Phytotoxicity Chlorosis: 3%
  Phytotoxicity General: 3%
  Phytotoxicity Stunting: 6%
Basil 'Genovese' [2]; [11]
  Phytotoxicity Chlorosis: 8%
  Phytotoxicity General: 2%
  Phytotoxicity Stunting: 5%
Basil 'Genovese' [2]; [12]
  Phytotoxicity Chlorosis: 10%
  Phytotoxicity General: 2%
  Phytotoxicity Stunting: 13%
Basil 'Genovese' [2]; [13]
  Phytotoxicity Chlorosis: 3%
  Phytotoxicity General: 7%
  Phytotoxicity Stunting: 10%
Basil 'Genovese' [2]; [14]
  Phytotoxicity Chlorosis: 8%
  Phytotoxicity General: 2%
  Phytotoxicity Stunting: 10%
Basil 'Genovese' [2]; [15]
  Phytotoxicity Chlorosis: 5%
  Phytotoxicity General: 10%
  Phytotoxicity Stunting: 8%
Basil 'Genovese' [2]; [16]
  Phytotoxicity Chlorosis: 7%
  Phytotoxicity General: 2%
  Phytotoxicity Stunting: 12%
Kale 'Red Russian' [3]; [17]
  Alanine, Percent Increase over the Untreated Check (on a % dry matter basis): −1 % check
  Aspartic acid, Percent Increase over the Untreated Check (on a % dry matter basis): 0 % check
  Cysteine, Percent Increase over the Untreated Check (on a % dry matter basis): 0 % check
  Glutamic acid, Percent Increase over the Untreated Check (on a % dry matter basis): 5 % check
  Glycine, Percent Increase over the Untreated Check (on a % dry matter basis): −4 % check
  Iso-leucine, Percent Increase over the Untreated Check (on a % dry matter basis): 0 % check
  Leucine, Percent Increase over the Untreated Check (on a % dry matter basis): 0 % check
  Lysine, Percent Increase over the Untreated Check (on a % dry matter basis): 6 % check
  Methionine, Percent Increase over the Untreated Check (on a % dry matter basis): 2 % check
  Proline, Percent Increase over the Untreated Check (on a % dry matter basis): −2 % check
  Threonine, Percent Increase over the Untreated Check (on a % dry matter basis): −2 % check
  Total Amino acids, Percent Increase over the Untreated Check (on a % dry matter basis): 1 % check
  Total Protein, Percent Increase over the Untreated Check (on a % dry matter basis): 3 % check
  Valine, Percent Increase over the Untreated Check (on a % dry matter basis): 1 % check
Kale 'Red Russian' [3]; [18]
  ADF, Percent Increase Over the Untreated Check (on a % dry matter basis): 1 % check
  Calcium, Percent Increase Over the Untreated Check (on a % dry matter basis): 18 % check
  Copper, Percent Increase Over the Untreated Check (on a % dry matter basis): 50 % check
  Iron, Percent Increase Over the Untreated Check (on a % dry matter basis): 33 % check
  Magnesium, Percent Increase Over the Untreated Check (on a % dry matter basis): 11 % check
  Manganese, Percent Increase Over the Untreated Check (on a % dry matter basis): 39 % check
  NDF, Percent Increase Over the Untreated Check (on a % dry matter basis): −8 % check
  Phosphorous, Percent Increase Over the Untreated Check (on a % dry matter basis): 9 % check
  Potassium, Percent Increase Over the Untreated Check (on a % dry matter basis): 4 % check
  Sodium, Percent Increase Over the Untreated Check (on a % dry matter basis): 13 % check
  Zinc, Percent Increase Over the Untreated Check (on a % dry matter basis): 18 % check
Kale 'Red Russian' [3]; [19]
  ADF, Percent Increase Over the Untreated Check (on a % dry matter basis): 9 % check
  Calcium, Percent Increase Over the Untreated Check (on a % dry matter basis): 0 % check
  Copper, Percent Increase Over the Untreated Check (on a % dry matter basis): 28 % check
  Iron, Percent Increase Over the Untreated Check (on a % dry matter basis): 3 % check
  Magnesium, Percent Increase Over the Untreated Check (on a % dry matter basis): 3 % check
  Manganese, Percent Increase Over the Untreated Check (on a % dry matter basis): 16 % check
  NDF, Percent Increase Over the Untreated Check (on a % dry matter basis): 1 % check
  Phosphorous, Percent Increase Over the Untreated Check (on a % dry matter basis): 7 % check
  Potassium, Percent Increase Over the Untreated Check (on a % dry matter basis): 1 % check
  Sodium, Percent Increase Over the Untreated Check (on a % dry matter basis): 45 % check
  Zinc, Percent Increase Over the Untreated Check (on a % dry matter basis): 10 % check
Kale 'Red Russian' [3]; [20]
  Alanine, Percent Increase over the Untreated Check (on a % dry matter basis): 6 % check
  Aspartic acid, Percent Increase over the Untreated Check (on a % dry matter basis): 7 % check
  Cysteine, Percent Increase over the Untreated Check (on a % dry matter basis): 6 % check
  Glutamic acid, Percent Increase over the Untreated Check (on a % dry matter basis): 12 % check
  Glycine, Percent Increase over the Untreated Check (on a % dry matter basis): 3 % check
  Iso-leucine, Percent Increase over the Untreated Check (on a % dry matter basis): 6 % check
  Leucine, Percent Increase over the Untreated Check (on a % dry matter basis): 6 % check
  Lysine, Percent Increase over the Untreated Check (on a % dry matter basis): 11 % check
  Methionine, Percent Increase over the Untreated Check (on a % dry matter basis): 0 % check
  Proline, Percent Increase over the Untreated Check (on a % dry matter basis): 9 % check
  Threonine, Percent Increase over the Untreated Check (on a % dry matter basis): 4 % check
  Total Amino acids, Percent Increase over the Untreated Check (on a % dry matter basis): 7 % check
  Total Protein, Percent Increase over the Untreated Check (on a % dry matter basis): 5 % check
  Valine, Percent Increase over the Untreated Check (on a % dry matter basis): 7 % check
Basil 'Genovese' [4]
  ADF, Percent Increase Over the Untreated Check (on a % dry matter basis): −12 % check
  Calcium, Percent Increase Over the Untreated Check (on a % dry matter basis): 7 % check
  Copper, Percent Increase Over the Untreated Check (on a % dry matter basis): 8 % check
  Iron, Percent Increase Over the Untreated Check (on a % dry matter basis): 108 % check
  Magnesium, Percent Increase Over the Untreated Check (on a % dry matter basis): 12 % check
  Manganese, Percent Increase Over the Untreated Check (on a % dry matter basis): 28 % check
  NDF, Percent Increase Over the Untreated Check (on a % dry matter basis): −8 % check
  Phosphorous, Percent Increase Over the Untreated Check (on a % dry matter basis): 11 % check
  Potassium, Percent Increase Over the Untreated Check (on a % dry matter basis): 12 % check
  Protein, Percent Increase Over the Untreated Check (on a % dry matter basis): 20 % check
  Sodium, Percent Increase Over the Untreated Check (on a % dry matter basis): 83 % check
  Soluble protein, Percent Increase Over the Untreated Check (on a % dry matter basis): 196 % check
  Zinc, Percent Increase Over the Untreated Check (on a % dry matter basis): 33 % check
Kale ‘Red Russian’; [18]
  Yield Fresh weight: 108.2 grams
Kale ‘Red Russian’; [19]
  Yield Fresh weight: 110.1 grams
Basil ‘Genovese’; rates g ai/ha: chlropyrifos 1120, chlorothalonil 2630, paclobutrazol 3.23, mepiquat-chloride 12.3, Isoxadifen 8, Napthalic anhydride 264, + NIS 0.25 % v/v
  Yield Fresh weight: 24.6 grams
Basil ‘Genovese’; rates g ai/ha: chlropyrifos 3370, chlorothalonil 7900, paclobutrazol 9.7, mepiquat-chloride 37, Isoxadifen 16, Napthalic anhydride 527, + NIS 0.25 % v/v
  Yield Fresh weight: 32.9 grams
